Test results as given in ChEMBL document CHEMBL3227972, “Correlation of carbonic anhydrase inhibitory activities of benzenesulfonamides with the data obtained by use of nitrogen-14 nuclear quadrupole resonance” (J Med Chem, 1979).

Species on record: Homo sapiens
Test: Inhibition of carbonic anhydrase (unknown origin) relative to sulfanilamide

Q: Which fold change (FC) does the source give for `Nc1cccc(S(N)(=O)=O)c1` here?
A: The fold change (FC) was 2.5.

Q: `Cc1ccccc1S(N)(=O)=O` was tested. Which fold change (FC) did it give?
A: Its fold change (FC) is 1.8.

Q: For `NS(=O)(=O)c1ccc([N+](=O)[O-])cc1`, which fold change (FC) is on record?
A: Its fold change (FC) is 23.

Q: With `Nc1ccc(S(N)(=O)=O)cc1` as the compound, how does the fold change (FC) read?
A: The fold change (FC) was 1.

Q: How did the fold change (FC) turn out when `NS(=O)(=O)c1ccc(Cl)cc1` was run?
A: The fold change (FC) was 18.

Q: `NS(=O)(=O)c1ccccc1` was tested. Which fold change (FC) did it give?
A: Its fold change (FC) is 4.
